Here are results for three molecules from PMC12301332, “Biased antagonism of a series of bicyclic CXCR2 intracellular allosteric modulators” (Frontiers in Pharmacology, 2025).

Each structure is given as a SMILES string.

The target in assay [1] is T1, CXCR2 (Homo sapiens, UniProt P25025).
T1 construct: expressed in transfected cells
T1 sequence (P25025 1-360): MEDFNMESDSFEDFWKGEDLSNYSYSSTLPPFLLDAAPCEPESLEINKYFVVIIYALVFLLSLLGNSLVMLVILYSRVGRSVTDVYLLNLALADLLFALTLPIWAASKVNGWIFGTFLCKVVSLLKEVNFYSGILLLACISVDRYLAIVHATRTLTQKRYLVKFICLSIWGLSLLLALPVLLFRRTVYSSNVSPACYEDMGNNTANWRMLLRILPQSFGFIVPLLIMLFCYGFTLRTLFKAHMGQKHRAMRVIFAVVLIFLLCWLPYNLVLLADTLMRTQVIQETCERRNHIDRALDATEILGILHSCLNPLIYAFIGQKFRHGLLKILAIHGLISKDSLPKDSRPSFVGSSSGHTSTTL
On the set-up: method as in Van Hoof et al., 2022. Conditions: ref Van Hoof et al., 2022; cited from earlier work.

Assay [2] has as its target T1, CXCR2. Put plainly: Bias analysis (bias plot, bias index) of β-arrestin1 recruitment inhibition versus Gαi1 activation inhibition, navarixin as reference. In kind it is cell-based. The following applies: for bias index vs navarixin, statistical significance (H1): one-sample T-test; for differences in bias index between the various CXCR2 ligands (H2): one-way ANOVA followed by Tukey's test. As to the method: For signaling bias calculations, constraints were set to bottom values equal to zero. The calculated top values generated by nonlinear fit log (inhibitor) vs response (three parameters) in GraphPad 10.2.1 were taken as Imax. […] The bias index values were calculated, as is shown in calculation 2. Briefly, log(Imax/IC50) was calculated. […] Finally, the bias index was calculated by subtracting the ∆log (Imax/IC50) of the tested compound from the stated reference pathway from that of the pathway of interest. […] The statistical significance of H1 was evaluated using a one-sample T-test with Benjamini-Hochberg correction applied for multiple comparisons, whereas H2 was assessed using a one-way ANOVA followed by Tukey’s test.
Bias index=∆LogImax/IC50P1:β−arr1−∆LogImax/IC50P2:Gai1 .
Bias plots are equimolar comparisons between the two pathways of interest.
On the technique in general: Activated receptors often draw arrestin, which recruitment assays turn into a signal.

For the molecule `CC(CO)Nc1nc(SCc2cccc(F)c2F)nc2cnccc12` (stereo not shown) [MVH-3], the calcium mobilization antagonism result in assay [1] is “potent”. Besides, the “bias index vs navarixin, statistical significance (H1)” value in assay [2] (CXCL1-induced responses) is “highly significant”; in assay [2] (CXCL2, CXCL5, and CXCL6 responses), “nonsignificantly different from navarixin”. Also, the “differences in bias index between the various CXCR2 ligands (H2)” value in assay [2] was “statistically significant”.

Take `CC(CO)Nc1nc(SCc2cccc(F)c2F)nc2oncc12` (stereo not shown) [MVH-24]: the calcium mobilization antagonism result in assay [1] is recorded as “most potent”. In addition, the “bias index vs navarixin, statistical significance (H1)” value in assay [2] (CXCL1-, CXCL2-, CXCL5-, CXCL6-, and CXCL8-induced responses) was “nonsignificantly different from navarixin”.

Regarding `CC(CCO)Nc1nc(SCc2cccc(F)c2F)nc2[nH]nnc12` (stereo not shown) [MVH-33], the “differences in bias index between the various CXCR2 ligands (H2)” value in assay [2] is “statistically significant”.
